In patent US10035790B2, “RORγ modulators” (BRISTOL-MYERS SQUIBB COMPANY, priority 2012, dated 2018):
pIC50: −log10 of the molar value. Read-outs that look alike come from different tables or passages of the source.

Target: T1, ligand binding domain of human RORγ (A262-S507) (Homo sapiens, UniProt P51449)
T1 construct: made in house; host or cells: E. coli
T1 sequence (P51449 262-507): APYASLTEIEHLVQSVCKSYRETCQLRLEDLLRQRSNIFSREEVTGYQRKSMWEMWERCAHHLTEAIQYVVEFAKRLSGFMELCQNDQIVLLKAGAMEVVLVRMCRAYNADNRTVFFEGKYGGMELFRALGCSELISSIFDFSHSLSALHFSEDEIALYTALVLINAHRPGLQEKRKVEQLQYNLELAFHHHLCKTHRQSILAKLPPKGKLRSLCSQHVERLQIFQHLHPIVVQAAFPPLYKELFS
Experiment: General RORγ SPA binding assay (competition with [3H]25-hydroxycholesterol)
Settings: inhibition of [3H]25-hydroxycholesterol binding
Method in brief: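 Scintillation counts from copper His-tag SPA beads (4 mg/mL, 30 min) gave percent inhibition of radioligand binding, from which IC50 values are derived. The E. coli-expressed His-tagged domain (50 nM) is first exposed to compound for 15 min at room temperature in PBS containing 0.5% fatty acid free BSA.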

[1] = RORγ SPA binding assay, read-out: IC50

Row | pIC50 [1] | SMILES | pIC50 (IC50, RORγ SPA binding assay)
1 | 6.47 | Cc1nc(C)c(-c2nc(-c3ccc(F)cc3)no2)c(C2CCN(C(=O)Cc3c(F)cccc3F)CC2)n1 [Compound C2, 2-(2,6-difluorophenyl)-1-(4-(5-(3-(4-fluorophenyl)-1,2,4-oxadiazol-5-yl)-2,6-dimethylpyrimidin-4-yl)piperidin-1-yl)ethanone] | 
2 | 6.57 | Cc1cc(-c2nnc(-c3c(C)nc(C)nc3C3CCN(C(=O)Cc4c(F)cccc4F)CC3)o2)cc(Cl)n1 [Compound C19, 1-(4-(5-(5-(2-chloro-6-methylpyridin-4-yl)-1,3,4-oxadiazol-2-yl)-2,6-dimethylpyrimidin-4-yl)piperidin-1-yl)-2-(2,6-difluorophenyl)ethanone] | 
3 | 7.35 | Cc1cc(C)cc(CNCc2cnc(C)nc2C2CCN(C(=O)Cc3c(F)cccc3F)CC2)c1 [Compound F6, 2-(2,6-Difluorophenyl)-1-(4-(5-((3,5-dimethylbenzylamino)methyl)-2-methylpyrimidin-4-yl)piperidin-1-yl)ethanone] | 
4 | 6.95 | Cc1ncc(C(C)(O)CNc2ccnc(C(F)(F)F)n2)c(C2CCN(C(=O)Nc3c(F)cccc3C(F)(F)F)CC2)n1 (stereo not drawn) [Compound D18, N-[2-Fluoro-6-(trifluoromethyl)phenyl]-4-[5-(1-hydroxy-1-methyl-2-{[2-(trifluoromethyl)pyrimidin-4-yl]amino}ethyl)-2-methylpyrimidin-4-yl]piperidine-1-carboxamide] | 
5 | 7.10 | Cc1ncc(C(C)(O)CNc2ccnc(Cl)c2)c(C2CCN(C(=O)Cc3c(F)cccc3F)CC2)n1 (stereo not drawn) [Compound D7, 1-(4-(5-(1-((2-chloropyridin-4-yl)amino)-2-hydroxypropan-2-yl)-2-methylpyrimidin-4-yl)piperidin-1-yl)-2-(2,6-difluorophenyl)ethanone] | 
6 | 8.39 | Cc1cc(C)cc(COC(C)(COC[C@H](O)CO)c2cnc(C)nc2C2CCN(C(=O)Cc3c(F)cccc3F)CC2)c1 (stereo in doubt) [Compound E8, 2-(2,6-Difluorophenyl)-1-(4-(5-(1-(2,3-dihydroxypropoxy)-2-(3,5-dimethylbenzyloxy)propan-2-yl)-2-methylpyrimidin-4-yl)piperidin-1-yl)ethanone] | 
7 | 6.18 | Cc1nc(C2CCN(C(=O)Cc3c(F)cccc3F)CC2)c(C(=O)NCc2cccc(C(F)(F)F)n2)c(=O)n1C [Compound I7, 4-(1-(2-(2,6-Difluorophenyl)acetyl)piperidin-4-yl)-1,2-dimethyl-6-oxo-N-((6-(trifluoromethyl)pyridin-2-yl)methyl)-1,6-dihydropyrimidine-5-carboxamide] | 
8 | 8.21 | Nc1ncc(C(F)(F)COc2ccnc(C(F)(F)F)n2)c(C2CCN(C(=O)Nc3c(F)cccc3F)CC2)n1 [Compound N17, 4-[2-Amino-5-(1,1-difluoro-2-{[2-(trifluoromethyl)pyrimidin-4-yl]oxy}ethyl)pyrimidin-4-yl]-N-(2,6-difluorophenyl)piperidine-1-carboxamide] | 
9 | 7.82 | CC(O)(COc1ccnc(C(F)(F)F)n1)c1cnc(NC2CC2)nc1C1CCN(C(=O)Nc2c(F)cccc2F)CC1 (stereo not drawn) [Compound D34, 4-[2-(Cyclopropylamino)-5-(1-hydroxy-1-methyl-2-{[2-(trifluoromethyl)pyrimidin-4-yl]oxy}ethyl)pyrimidin-4-yl]-N-(2,6-difluorophenyl)piperidine-1-carboxamide] | 
10 | 6.74 | Cc1ncc(C(O)(CNC(=O)CCO)COc2cccc(C(F)(F)F)n2)c(C2CCN(C(=O)Nc3c(F)cccc3F)CC2)n1 (stereo not drawn) [Compound N42, N-(2,6-Difluorophenyl)-4-(5-{1-hydroxy-2-[(3-hydroxypropanoyl)amino]-1-({[6-(trifluoromethyl)pyridin-2-yl]oxy}methyl)ethyl}-2-methylpyrimidin-4-yl)piperidine-1-carboxamide] | 
11 | 6.54 | Cc1ncc(C2(C)CN(c3ccnc(C(F)(F)F)n3)C(=O)O2)c(C2CCN(C(=O)Cc3c(F)cccc3F)CC2)n1 (stereo not drawn) [Compound N50, 5-(4-{1-[(2,6-Difluorophenyl)acetyl]piperidin-4-yl}-2-methylpyrimidin-5-yl)-5-methyl-3-[2-(trifluoromethyl)pyrimidin-4-yl]-1,3-oxazolidin-2-one] | 
12 | 7.55 | Cc1nc(N)nc(C2CCN(C(=O)Nc3c(F)cccc3F)CC2)c1-c1nnc(-c2cccc(C(F)(F)F)n2)o1 [Compound C59, 4-(2-Amino-6-methyl-5-{5-[6-(trifluoromethyl)pyridin-2-yl]-1,3,4-oxadiazol-2-yl}pyrimidin-4-yl)-N-(2,6-difluorophenyl)piperidine-1-carboxamide] | 
13 | 8.08 | Cc1ncc(C(C)(O)CNc2ccnc(C(F)(F)F)n2)c(C2CCN(C(=O)Cc3c(F)cccc3F)CC2)n1 (stereo not drawn) [Compound D5, 2-(2,6-difluorophenyl)-1-(4-(5-(2-hydroxy-1-((2-(trifluoromethyl)pyrimidin-4-yl)amino)propan-2-yl)-2-methylpyrimidin-4-yl)piperidin-1-yl)ethanone] | 

Continued, compound first:

Row | SMILES | pIC50 [1] | pIC50 (IC50, RORγ SPA binding assay)
14 | Cc1cc(C)cc(CNC(=O)c2cnc(C)nc2C2CCN(C(=O)c3c(F)cccc3Cl)CC2)c1 [Compound A8, 4-(1-(2-chloro-6-fluorobenzoyl)piperidin-4-yl)-N-(3,5-dimethylbenzyl)-2-methylpyrimidine-5-carboxamide] | 7.53 | 
15 | Cc1cc(C)cc(CNC(=O)c2cnc(C)nc2C2CCN(C(=O)Cc3ccccc3C(F)(F)F)CC2)c1 [Compound A5, N-(3,5-dimethylbenzyl)-2-methyl-4-(1-(2-(2-(trifluoromethyl)phenyl)acetyl)piperidin-4-yl)pyrimidine-5-carboxamide] | 8.05 | 
16 | Cc1nc(C)c(/C=N/Oc2cccc(C(F)(F)F)c2)c(C2CCN(C(=O)Nc3c(F)cccc3F)CC2)n1 [Compound B46, N-(2,6-Difluorophenyl)-4-{2,6-dimethyl-5-[(E)-({[3-(trifluoromethyl)phenyl]oxy}imino)methyl]pyrimidin-4-yl}piperidine-1-carboxamide] | 6.98 | 
17 | Cc1cc(C)cc(CNC(=O)c2cnc(C)nc2C2CCN(C(=O)Cc3ccccn3)CC2)c1 [Compound A38, N-(3,5-dimethylbenzyl)-2-methyl-4-(1-(2-(pyridin-2-yl)acetyl)piperidin-4-yl)pyrimidine-5-carboxamide] | 5.28 | 
18 | Cc1nc(N)nc(C2CCN(C(=O)Oc3cccc(F)c3)CC2)c1-c1nnc(-c2ccnc(C(F)(F)F)n2)o1 [Compound C55, 3-Fluorophenyl 4-(2-amino-6-methyl-5-{5-[2-(trifluoromethyl)pyrimidin-4-yl]-1,3,4-oxadiazol-2-yl}pyrimidin-4-yl)piperidine-1-carboxylate] | 7.72 | 
19 | Cc1ncc(/C(CO)=N/Oc2ccnc(C(F)(F)F)n2)c(C2CCN(C(=O)Cc3c(F)cccc3F)CC2)n1 [Compound B25, (Z)-2-(2,6-difluorophenyl)-1-(4-(5-(2-hydroxy-1-(((2-(trifluoromethyl)pyrimidin-4-yl)oxy)imino)ethyl)-2-methylpyrimidin-4-yl)piperidin-1-yl)ethanone] | 7.95 | 
20 | Cc1nc(C)c(C(=O)NCc2ccnc(C(F)(F)F)n2)c(C2CCN(C(=O)Oc3c(F)cccc3F)CC2)n1 [Compound A123, 2,6-Difluorophenyl 4-{2,6-dimethyl-5-[({[2-(trifluoromethyl)pyrimidin-4-yl]methyl}amino)carbonyl]pyrimidin-4-yl}piperidine-1-carboxylate] |  | 8.27
21 | Cc1cc(C)cc(CNC(=O)c2cnc(C)nc2C2CCN(C(=O)Cc3c(F)cccc3Cl)CC2)c1 [Compound A3, 4-(1-(2-(2-chloro-6-fluorophenyl)acetyl)piperidin-4-yl)-N-(3,5-dimethylbenzyl)-2-methylpyrimidine-5-carboxamide] | 8.14 | 
22 | Cc1cc(C)cc(CNC(=O)c2cnc(C)nc2C2CCN(C(=O)Cc3ccc(F)c(F)c3)CC2)c1 [Compound A34, 4-(1-(2-(3,4-difluorophenyl)acetyl)piperidin-4-yl)-N-(3,5-dimethylbenzyl)-2-methylpyrimidine-5-carboxamide] | 5.57 | 
23 | CC(C)c1ncc(C(=O)NCc2ccc(Cl)c(Cl)c2)c(C2CCN(C(=O)Cc3ccccc3F)CC2)n1 [Compound A36, N-(3,4-dichlorobenzyl)-4-(1-(2-(2-fluorophenyl)acetyl)piperidin-4-yl)-2-isopropylpyrimidine-5-carboxamide] | 5.48 | 
24 | CC(O)(COc1ccnc(C(F)(F)F)n1)c1cnc(N)nc1C1CCN(C(=O)Oc2ccccc2F)CC1 (stereo not drawn) [Compound D49, 2-Fluorophenyl 4-[2-amino-5-(1-hydroxy-1-methyl-2-{[2-(trifluoromethyl)pyrimidin-4-yl]oxy}ethyl)pyrimidin-4-yl]piperidine-1-carboxylate] |  | 8.14
25 | C/C(=N\Oc1cc(C)cc(C)c1)c1cnc(C)nc1C1CCN(C(=O)Cc2c(F)cccc2F)CC1 [Compound B9, (E)-2-(2,6-difluorophenyl)-1-(4-(5-(1-((3,5-dimethylphenoxy)imino)ethyl)-2-methylpyrimidin-4-yl)piperidin-1-yl)ethanone] | 8.57 | 
26 | C/C(=N/Oc1cccc(C(F)(F)F)c1)c1cnc(C)nc1C1CCN(C(=O)Nc2c(F)cccc2F)CC1 [Compound B44, N-(2,6-Difluorophenyl)-4-{2-methyl-5-[(1Z)—N-{[3-(trifluoromethyl)phenyl]oxy}ethanimidoyl]pyrimidin-4-yl}piperidine-1-carboxamide] | 7.07 | 
27 | Cc1cc(C)cc(CNC(=O)c2cnc(C)nc2C2CCN(CCc3ccccc3)CC2)c1 [Compound A101, N-(3,5-dimethylbenzyl)-2-methyl-4-(1-phenethylpiperidin-4-yl)pyrimidine-5-carboxamide] | 6.20 | 
